{"source": "paper PMC9888480", "about": "“Carboranyl-1,8-naphthalimide intercalators induce lysosomal membrane permeabilization and ferroptosis in cancer cell lines” (Journal of Enzyme Inhibition and Medicinal Chemistry, 2023)", "key": {"HepG2 cells [1]": {"tested_on": "HepG2 cells", "test": "Intracellular Fe2+ level determination (FeRhoNox-1)", "type": "cell-based, human", "settings": "HepG2, 24 h, total IC50 concentration", "method": "The HepG2 cells were seeded at the density of 2 × 10^5 cells/well onto 12-well plates and cultured with supplemented EMEM at 37 °C under 5% CO2 saturation until 70–80% confluency was reached. […] Subsequently, the cells were detached with trypsin (Corning®), washed with 1 ml DPBS (Capricorn), and then resuspended in the growth medium with 5 µM FeRhoNox™-1 (Goryo Chemical) for 1 h. […] The cells were analysed after incubation with the dye with excitation at 488 nm using a FACSCalibur flow cytometer (Becton Dickinson), and the data were analysed using the FlowJo software (Becton Dickinson). To create a strong, single, positive red fluorescence signal, 3 mM N-acetylcysteine (2 h incubation; Sigma-Aldrich) was used."}, "HepG2 cells [2]": {"tested_on": "HepG2 cells", "test": "Reduced glutathione (GSH) level measurement (Thiolite Green)", "type": "cell-based, human", "settings": "HepG2, 24 h, total IC50 concentration", "method": "The HepG2 cells were seeded at a density of 2 × 10^5 cells/well onto 12-well plates and under the same environmental conditions as the above experiments. The cells were then treated with the tested compounds at the final concentration equal to the total IC50 values for 24 h. The cellular GSH level was measured by staining with the nonfluorescent Thiolite Green dye, which emits strong fluorescence after reaction with thiols ([…]) according to the manufacturer’s protocol (AAT Bioquest, Sunnyvale, CA, USA). After incubation with the compounds (34–5 µM, 35–4.5 µM, 36–4 µM, 37–4.5 µM) the cells were detached with trypsin (Corning®) and washed twice with 1 ml of DPBS (Capricorn). Subsequently, the cells were suspended in a staining solution (50 µM) and incubated at 37 °C in a 5% CO2 environment for 30 min. After staining, the fluorescence intensity was analysed using a FACSCalibur flow cytometer with excitation at 488 nm, and the data were analysed using the FlowJo software (Becton Dickinson)."}, "[3]": {"tested_on": "relaxed pBR 322 plasmid DNA", "test": "DNA unwinding assay, relaxed plasmid as substrate", "type": "binding", "settings": "10 µM, in the presence of Topo I", "from_the_text": "Compounds that are able to intercalate into DNA or bind in the groove are involved in the local unwinding of the DNA, leading to a decrease in the twist number and an increase in the writhe number of the previously relaxed plasmid DNA used in the assay, resulting in a positively supercoiled DNA. If this DNA is then nicked by a topoisomerase, the enzyme will remove supercoils and relax the DNA, followed by religation. Upon removal of the compound and the enzyme by butanol extraction, the twist will increase, so the writhe will decrease, resulting in more negatively supercoiled DNA, which runs faster on agarose gel. […] This assay should be verified by performing a second reaction using a negatively supercoiled plasmid as a substrate to confirm that the compound is not simply acting as an inhibitor of the Topo I.\nThe DNA Unwinding Assay Kit (Cat no. DUKSR001) was purchased from Inspiralis (Norwich, UK). […] After extraction, the aqueous layer was mixed with an equal volume of STEB buffer (40% (w/v) sucrose, Tris–HCl (100 mM, pH 8), EDTA (1 mM), bromophenol blue (0.5 mg/ml)), extracted with chloroform/isoamyl alcohol (24:1), and analysed on 1% agarose gel in TAE buffer at 70 V for 2 h, followed by ethidium bromide staining. […]"}, "HepG2 cells [4]": {"tested_on": "HepG2 cells", "test": "Mitochondrial membrane potential (MMP) measurement (JC-1)", "type": "cell-based, human", "settings": "HepG2, 3-h treatment, 4.5 µM; 69.9% in control cells", "method": "The HepG2 cells were seeded at the density of 2 × 10^5 cells/well onto 12-well plates and cultured with EMEM at 37 °C under 5% CO2 saturation until 70–80% confluency was reached. […] After incubation, the cells were detached with trypsin (Corning®) and washed twice with 1 ml of DPBS (Capricorn), and alterations in ΔΨm were analysed using the MMP-sensitive cationic dye 5,5′,6,6′-tetrachloro-1,1′,3,3′-tetraethylbenzimidazolylcarbocyanine iodide (JC-1; Thermo Fisher Scientific), which can selectively enter mitochondria and change colour from red to green as the membrane potential decreases. The cells were stained with 2.5 µM JC-1 for 30 min at 37 °C in the dark. The maximum emission wavelengths of JC-1 monomers and “J-aggregates” were ∼ 525 (FL-1 channel) and ∼ 590 (FL-2 channel) nm, respectively. To create a strong, single positive green fluorescence signal, 3 µM FCCP was used. The mean fluorescence intensity representing the intracellular MMP level was analysed after incubation with the dye, with excitation at 488 nm using a FACSCalibur flow cytometer (Becton Dickinson), and the data were analysed using the FlowJo software (Becton Dickinson)."}}, "data": [{"substance": "4-[(6-[(1,2-Dicarba-closo-dodecaborane-1-yl)ethylamino]hexyl)amino]-3-nitro-N-[2-(N-pyrrolidinyl)ethyl]-1,8-naphthalimide [Compound 36]", "values": [{"measurement": "intracellular Fe2+ level (red fluorescence intensity)", "setting": "HepG2 cells [1]", "value": "lowest"}, {"measurement": "GSH level, green fluorescence change compared to control", "setting": "HepG2 cells [2]", "value": "not statistically significant"}]}, {"substance": "4-[(6-[(1,7-Dicarba-closo-dodecaborane-1-yl)ethylamino]hexyl)amino]-3-nitro-N-[2-(N-pyrrolidinyl)ethyl]-1,8-naphthalimide [Compound 37]", "values": [{"measurement": "DNA intercalation (supercoiled DNA fraction from relaxed plasmid)", "setting": "[3]", "value": "strongest DNA intercalator"}]}, {"substance": "4-[(6-[(1,7-Dicarba-closo-dodecaborane-1-yl)ethylamino]hexyl)amino]-N-[2-(dimethylamino)ethyl]-3-nitro-1,8-naphthalimide [Compound 35]", "values": [{"measurement": "intracellular Fe2+ level (red fluorescence intensity)", "setting": "HepG2 cells [1]", "value": "highest ferrous level"}, {"measurement": "GSH level, green fluorescence change compared to control", "setting": "HepG2 cells [2]", "value": 70, "unit": "%"}, {"measurement": "MMP, JC-1 aggregates", "setting": "HepG2 cells [4]", "value": 90.8, "unit": "%"}]}]}
